According to ChEMBL document CHEMBL1201862, “PubChem BioAssay data set” (2004):
Activity calls are given as the source filed them.

Tests used:
[1] = SAR analysis of small molecule activators of Apaf-1 using a LZ-Caspase-9/Caspase-3 Fluorescent Selectivity assay - Set 2.; format: functional; details: read-out: EC50_Mean
[2] = target: T1, Apoptotic protease-activating factor 1 (Homo sapiens, UniProt O14727); assay: SAR analysis of small molecule Activators of Apaf-1 in a Fluorescent assay - set 2.; format: functional; details: read-out: EC50_Mean
T1 sequence (O14727 whole entry): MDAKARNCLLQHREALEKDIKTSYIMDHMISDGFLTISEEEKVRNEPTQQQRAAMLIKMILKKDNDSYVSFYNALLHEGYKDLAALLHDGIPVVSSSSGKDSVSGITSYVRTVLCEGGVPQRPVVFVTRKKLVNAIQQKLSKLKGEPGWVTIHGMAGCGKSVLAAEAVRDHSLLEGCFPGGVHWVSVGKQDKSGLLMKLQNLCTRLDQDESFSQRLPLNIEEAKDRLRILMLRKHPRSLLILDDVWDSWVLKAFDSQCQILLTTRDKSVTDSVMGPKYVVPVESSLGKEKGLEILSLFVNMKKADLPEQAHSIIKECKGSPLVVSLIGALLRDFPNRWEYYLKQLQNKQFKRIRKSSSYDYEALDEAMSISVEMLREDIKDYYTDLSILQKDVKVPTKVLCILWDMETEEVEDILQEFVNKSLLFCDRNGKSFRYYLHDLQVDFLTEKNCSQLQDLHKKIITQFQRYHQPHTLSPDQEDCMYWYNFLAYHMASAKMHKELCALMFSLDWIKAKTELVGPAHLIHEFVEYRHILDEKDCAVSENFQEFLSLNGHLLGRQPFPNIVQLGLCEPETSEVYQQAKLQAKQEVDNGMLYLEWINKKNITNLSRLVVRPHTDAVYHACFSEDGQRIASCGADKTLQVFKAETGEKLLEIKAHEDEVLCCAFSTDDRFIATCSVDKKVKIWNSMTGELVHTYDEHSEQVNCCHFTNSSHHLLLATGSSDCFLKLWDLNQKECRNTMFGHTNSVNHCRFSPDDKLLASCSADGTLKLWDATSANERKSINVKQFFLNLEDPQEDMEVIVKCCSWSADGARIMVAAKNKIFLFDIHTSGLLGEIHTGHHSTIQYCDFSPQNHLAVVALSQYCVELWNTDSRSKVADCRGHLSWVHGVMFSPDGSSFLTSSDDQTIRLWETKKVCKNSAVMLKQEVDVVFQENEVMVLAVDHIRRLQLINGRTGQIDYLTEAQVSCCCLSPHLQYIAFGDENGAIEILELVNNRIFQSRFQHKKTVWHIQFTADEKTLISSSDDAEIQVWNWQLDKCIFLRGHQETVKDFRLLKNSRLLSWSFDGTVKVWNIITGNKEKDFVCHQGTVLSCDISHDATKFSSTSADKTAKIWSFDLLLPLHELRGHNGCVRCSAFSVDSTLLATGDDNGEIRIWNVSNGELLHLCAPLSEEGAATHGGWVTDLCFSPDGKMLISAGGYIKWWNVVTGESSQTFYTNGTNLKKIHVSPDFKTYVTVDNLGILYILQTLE

EC50 [1]: > 100 µM (inactive) | EC50 [2]: > 100 µM (inactive)
Compound: CC(Cn1cccn1)C(=O)O (configuration not stated)
